Experimental data: US20250195521A1 (Revolution Medicines, Inc., priority 2020, published 2025)
Where two headings read alike, the source gives them in different places.

Columns and labels:
[1] = tested on: NCI-H358 cells (K-Ras G12C); test: CellTiter-Glo cell viability, NCI-H358; assay type: cell-based, human; conditions: K-Ras G12C, 5-day treatment, read-out: H358 Cell Viability IC50
Outline: (§1)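 Cells seeded, compound dispensed straight into wells, 5-day exposure. Plates brought to room temperature ~30 min, CellTiter-Glo luminescence measured. Normalized to DMSO (%), 4-parameter logistic fit.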

[2] = tested on: Capan-1 cells (K-Ras G12V); test: CellTiter-Glo cell viability, Capan-1; assay type: cell-based, human; conditions: K-Ras G12V, 5-day treatment, read-out: Capan-1 Cell Viability IC50
Outline: as §1

KRAS G12D = KRAS G12D (Homo sapiens (Human), UniProt P01116+P62937, G12D); test: Ras-Raf disruption/FRET/MOA assay (BRAF RBD, Cyclophilin A); assay type: biochemical; conditions: read-out: KRAS G12D FRET IC50
Outline: (§2)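 25 μM tagless Cyclophilin A, 12.5 nM His6-Ras-GMPPNP and 50 nM GST-BRAF RBD in HEPES pH 7.3 buffer with 5 mM MgCl2, with compound (10-point 3-fold series from 30 μM final) for 3 h at 25 °C. Anti-His Eu and anti-GST APC then added for 1.5 h. IC50 from TR-FRET ratio decrease versus DMSO.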

KRAS G13C = KRAS G13C (Homo sapiens (Human), UniProt P01116+P62937, G13C); test: as above; assay type: biochemical; conditions: read-out: KRAS G13C FRET IC50
Outline: as §2

KRAS Q61H = KRAS Q61H (Homo sapiens (Human), UniProt P01116+P62937, Q61H); test: as above; assay type: biochemical
Outline: as §2

NRAS Q61K = NRAS Q61K (Homo sapiens (Human), UniProt P01111+P62937, Q61K); test: as above; assay type: biochemical
Outline: (§3)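 TR-FRET readout: anti-His Eu-W1024 (10 nM) and anti-GST allophycocyanin (50 nM) added after 3 h, 25° C compound incubation, then 1.5 h more. Decrease in FRET ratio versus DMSO wells marks Ras:RAF disruption; IC50 reported.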

NRAS Q61R = NRAS Q61R (Homo sapiens (Human), UniProt P01111+P62937, Q61R); test: as above; assay type: biochemical
Outline: as §3

NRAS WT = NRAS WT (Homo sapiens (Human), UniProt P01111+P62937); test: as above; assay type: biochemical
Outline: as §3

[3] = tested on: K-Ras G12C (NCI-H358 cells); test: Potency assay: pERK in NCI-H358 cells; assay type: cell-based, human; conditions: NCI-H358 cells, 4 hours, read-out: pERK EC50 (H358 KRAS G12C)
Outline: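 Cells plated the day before were exposed for 4 h at 37° C, 5% CO2 to a 10-point, 3-fold DMSO dilution series (10 mM top stock), in duplicate. Phospho-ERK was read by AlphaLISA SureFire Ultra or by In-Cell Western with DRAQ5 DNA stain, and IC50 came from a 4-parameter sigmoidal fit.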

KRAS G12C = KRAS G12C (Homo sapiens (Human), UniProt P01116+P62937, G12C); test: Ras-Raf disruption/FRET/MOA assay (BRAF RBD, Cyclophilin A); assay type: biochemical; conditions: read-out: KRAS G12C FRET IC50
Outline: as §2

KRAS G12S = KRAS G12S (Homo sapiens (Human), UniProt P01116+P62937, G12S); test: as above; assay type: biochemical; conditions: read-out: KRAS G12S FRET IC50
Outline: as §2

KRAS G12V = KRAS G12V (Homo sapiens (Human), UniProt P01116+P62937, G12V); test: as above; assay type: biochemical; conditions: read-out: KRAS G12V FRET IC50
Outline: as §2

KRAS G13D = KRAS G13D (Homo sapiens (Human), UniProt P01116+P62937, G13D); test: as above; assay type: biochemical; conditions: read-out: KRAS G13D FRET data IC50
Outline: as §2

KRAS WT = KRAS WT (Homo sapiens (Human), UniProt P01116+P62937); test: as above; assay type: biochemical; conditions: read-out: KRAS WT FRET data IC50
Outline: as §2

NRAS G12C = NRAS G12C (Homo sapiens (Human), UniProt P01111+P62937, G12C); test: as above; assay type: biochemical; conditions: read-out: NRAS G12C FRET data IC50
Outline: as §3

KRAS WT, sequence (P01116 other isoform, or with tags, fused parts or gaps): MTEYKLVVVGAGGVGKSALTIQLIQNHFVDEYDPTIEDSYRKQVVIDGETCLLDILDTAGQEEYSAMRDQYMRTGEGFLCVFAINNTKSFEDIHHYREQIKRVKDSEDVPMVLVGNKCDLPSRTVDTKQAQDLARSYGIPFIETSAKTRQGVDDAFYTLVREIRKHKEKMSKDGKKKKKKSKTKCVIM
KRAS WT, sequence (P62937 whole entry): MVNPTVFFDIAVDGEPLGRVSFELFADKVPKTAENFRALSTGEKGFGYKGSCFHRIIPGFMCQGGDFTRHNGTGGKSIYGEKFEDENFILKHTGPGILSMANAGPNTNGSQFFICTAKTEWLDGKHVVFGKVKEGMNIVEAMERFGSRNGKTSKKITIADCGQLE
KRAS Q61H, sequence (P01116 other isoform, or with tags, fused parts or gaps Q61H): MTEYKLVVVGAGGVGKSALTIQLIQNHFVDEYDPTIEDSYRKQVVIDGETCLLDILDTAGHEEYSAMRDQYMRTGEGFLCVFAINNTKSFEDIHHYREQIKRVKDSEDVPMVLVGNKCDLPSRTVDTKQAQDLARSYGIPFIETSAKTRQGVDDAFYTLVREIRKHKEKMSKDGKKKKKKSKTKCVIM
KRAS Q61H, sequence (P62937 whole entry): as the sequence (P62937 whole entry) above
NRAS Q61K, sequence (P01111 whole entry Q61K): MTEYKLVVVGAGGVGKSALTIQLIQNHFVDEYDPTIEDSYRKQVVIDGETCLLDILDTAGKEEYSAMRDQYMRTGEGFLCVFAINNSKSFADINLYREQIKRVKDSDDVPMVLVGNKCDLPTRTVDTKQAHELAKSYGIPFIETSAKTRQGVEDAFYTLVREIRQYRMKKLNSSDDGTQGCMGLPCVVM
NRAS Q61K, sequence (P62937 whole entry): as the sequence (P62937 whole entry) above
KRAS G12D, sequence (P01116 other isoform, or with tags, fused parts or gaps G12D): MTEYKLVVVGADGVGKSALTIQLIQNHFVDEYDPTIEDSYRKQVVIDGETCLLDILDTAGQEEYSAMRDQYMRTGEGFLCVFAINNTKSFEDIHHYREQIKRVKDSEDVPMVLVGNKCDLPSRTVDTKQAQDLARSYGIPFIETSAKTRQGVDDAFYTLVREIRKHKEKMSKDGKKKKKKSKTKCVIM
KRAS G12D, sequence (P62937 whole entry): as the sequence (P62937 whole entry) above
NRAS WT, sequence (P01111 whole entry): as the sequence (P01111 whole entry Q61K) above, with K61Q counted along it
NRAS WT, sequence (P62937 whole entry): as the sequence (P62937 whole entry) above
NRAS G12C, sequence (P01111 whole entry G12C): as the sequence (P01111 whole entry Q61K) above, with G12C, K61Q counted along it
NRAS G12C, sequence (P62937 whole entry): as the sequence (P62937 whole entry) above
KRAS G12V, sequence (P01116 other isoform, or with tags, fused parts or gaps G12V): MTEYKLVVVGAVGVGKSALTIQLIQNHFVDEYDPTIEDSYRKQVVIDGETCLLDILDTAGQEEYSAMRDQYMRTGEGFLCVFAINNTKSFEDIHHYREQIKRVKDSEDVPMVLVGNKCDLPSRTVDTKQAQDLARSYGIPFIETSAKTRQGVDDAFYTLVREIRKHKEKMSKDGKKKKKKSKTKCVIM
KRAS G12V, sequence (P62937 whole entry): as the sequence (P62937 whole entry) above
KRAS G12S, sequence (P01116 other isoform, or with tags, fused parts or gaps G12S): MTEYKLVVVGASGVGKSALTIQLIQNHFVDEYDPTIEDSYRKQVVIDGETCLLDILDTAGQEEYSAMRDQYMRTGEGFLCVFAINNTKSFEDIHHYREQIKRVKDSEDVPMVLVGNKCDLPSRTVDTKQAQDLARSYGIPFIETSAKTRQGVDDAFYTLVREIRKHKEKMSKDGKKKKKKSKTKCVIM
KRAS G12S, sequence (P62937 whole entry): as the sequence (P62937 whole entry) above
KRAS G13D, sequence (P01116 other isoform, or with tags, fused parts or gaps G13D): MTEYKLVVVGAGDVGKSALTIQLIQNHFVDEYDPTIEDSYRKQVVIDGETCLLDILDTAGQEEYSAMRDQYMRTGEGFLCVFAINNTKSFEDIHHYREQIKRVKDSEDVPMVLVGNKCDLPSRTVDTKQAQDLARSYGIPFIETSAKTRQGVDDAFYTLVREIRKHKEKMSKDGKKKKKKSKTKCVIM
KRAS G13D, sequence (P62937 whole entry): as the sequence (P62937 whole entry) above
NRAS Q61R, sequence (P01111 whole entry Q61R): as the sequence (P01111 whole entry Q61K) above, with K61R counted along it
NRAS Q61R, sequence (P62937 whole entry): as the sequence (P62937 whole entry) above
KRAS G12C, sequence (P01116-2 other isoform, or with tags, fused parts or gaps G12C): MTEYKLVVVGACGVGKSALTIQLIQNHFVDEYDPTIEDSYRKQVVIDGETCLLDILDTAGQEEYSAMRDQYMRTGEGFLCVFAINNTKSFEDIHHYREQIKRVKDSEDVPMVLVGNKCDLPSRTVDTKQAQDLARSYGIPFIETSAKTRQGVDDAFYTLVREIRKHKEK
KRAS G12C, sequence (P62937 whole entry): as the sequence (P62937 whole entry) above
KRAS G13C, sequence (P01116 other isoform, or with tags, fused parts or gaps G13C): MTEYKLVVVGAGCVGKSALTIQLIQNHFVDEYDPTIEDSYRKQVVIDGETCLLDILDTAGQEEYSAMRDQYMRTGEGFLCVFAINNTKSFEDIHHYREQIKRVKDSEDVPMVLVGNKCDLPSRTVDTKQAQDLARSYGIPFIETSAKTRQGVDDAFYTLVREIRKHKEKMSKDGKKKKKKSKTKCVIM
KRAS G13C, sequence (P62937 whole entry): as the sequence (P62937 whole entry) above

Compound | IC50 [1] [µM] | IC50 [2] [µM] | IC50 (KRAS G12D) [µM] | IC50 (KRAS G13C) [µM] | IC50 (KRAS Q61H) [µM] | IC50 (NRAS Q61K) [µM] | IC50 (NRAS Q61R) [µM] | IC50 (NRAS WT) [µM] | EC50 [3] [µM] | IC50 ([1]; Homo sapiens, NCI-H358, 120 h) [µM] | IC50 ([2]; Homo sapiens, CAPAN-1, 120 h) [µM] | IC50 (KRAS G12C) [µM] | IC50 (KRAS G12S) [µM] | IC50 (KRAS G12V) [µM] | IC50 (KRAS G13D) [µM] | IC50 (KRAS WT) [µM] | IC50 (NRAS G12C) [µM] | EC50 ([3]; Homo sapiens) [µM]
CCn1c(-c2cccnc2[C@H](C)OC)c2c3cc(ccc31)-c1cc(O)cc(c1)C[C@H](NC(=O)[C@H](C(C)C)N(C)C(=O)N1CC(N(C)C)C1)C(=O)N1CCC[C@H](N1)C(=O)OCC(C)(C)C2 [Compound A170] | 0.01 to 0.1 | 0.01 to 0.1 | 1 to 10 | 0.1 to 1 | 0.1 to 1 | 0.01 to 0.1 | 0.1 to 1 | 0.1 to 1 | < 5 | – | – | – | – | – | – | – | – | –
CCn1c(-c2cccnc2[C@H](C)OC)c2c3cc(ccc31)-c1csc(n1)C[C@H](NC(=O)N1CCOCC1)C(=O)N1CCC[C@H](N1)C(=O)OCC(C)(C)C2 [Compound A270] | – | – | 0.1 to 1 | 0.1 to 1 | 0.1 to 1 | 0.1 to 1 | 0.1 to 1 | 0.1 to 1 | – | 0.1 to 1 | 1 to 10 | 0.1 to 1 | 0.1 to 1 | 0.1 to 1 | 0.1 to 1 | 0.1 to 1 | 0.1 to 1 | –
CCn1c(-c2cccnc2[C@H](C)OC)c2c3cc(ccc31)-c1csc(n1)C[C@H](NC(=O)[C@H](C(C)C)N(C)C(=O)N1[C@H](C)COC[C@@H]1C)C(=O)N1CCC[C@H](N1)C(=O)OCC(C)(C)C2 [Compound A276] | – | – | 1 to 10 | 0.1 to 1 | 0.1 to 1 | 0.1 to 1 | 0.1 to 1 | 0.1 to 1 | – | 0.1 to 1 | 0.1 to 1 | 0.1 to 1 | 0.1 to 1 | 1 to 10 | 1 to 10 | 0.1 to 1 | 0.1 to 1 | –
CCn1c(-c2cccnc2[C@H](C)OC)c2c3cc(ccc31)-c1csc(n1)C[C@H](NC(=O)[C@H](C(C)C)N(C)C(=O)N1CCS(=O)(=O)CC1)C(=O)N1CCC[C@H](N1)C(=O)OCC(C)(C)C2 [Compound A357] | – | – | 1 to 10 | 0.1 to 1 | 0.1 to 1 | 0.1 to 1 | 0.1 to 1 | 0.1 to 1 | – | 0.01 to 0.1 | 0.01 to 0.1 | 0.1 to 1 | 0.1 to 1 | 0.1 to 1 | 0.1 to 1 | 0.1 to 1 | 0.01 to 0.1 | –
CCn1c(-c2cccnc2[C@H](C)OC)c2c3cc(ccc31)-c1cc(c3cn[nH]c3c1)C[C@H](NC(=O)[C@H](C(C)C)N(C)C(C)=O)C(=O)N1CCC[C@H](N1)C(=O)OCC(C)(C)C2 [Compound A388] | – | – | > 10 | 0.1 to 1 | 0.1 to 1 | 1 to 10 | 1 to 10 | 1 to 10 | – | – | 1 to 10 | 1 to 10 | 1 to 10 | 1 to 10 | 1 to 10 | 1 to 10 | 1 to 10 | < 5
CCn1c(-c2cccnc2[C@H](C)OC)c2c3cc(ccc31)-c1csc(n1)C[C@H](NC(=O)[C@H](C(C)C)N(C)C(=O)N1CC[C@@]13CCCNC3)C(=O)N1CCC[C@H](N1)C(=O)OCC(C)(C)C2 [Compound A435] | – | – | 0.1 to 1 | 0.1 to 1 | 0.1 to 1 | 1 to 10 | 1 to 10 | 0.1 to 1 | – | – | 1 to 10 | 0.1 to 1 | 0.1 to 1 | 1 to 10 | 0.1 to 1 | 0.1 to 1 | 0.1 to 1 | < 5
